How the values were obtained:
wheat = experiment: Test B pre/postemergence wheat; format: in vivo, Triticum aestivum
In short: (§1)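 Response is a visual 0-to-10 score relative to untreated plants, where 0 means no effect and 10 means complete control, taken twelve to sixteen days after application. Treatments went onto soil at planting and onto foliage of 1- to 4-leaf plants, using a surfactant-containing non-phytotoxic solvent.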

cocklebur = experiment: Test B pre/postemergence cocklebur; format: in vivo, Xanthium strumarium
In short: as §1

corn = experiment: Test B pre/postemergence corn; format: in vivo, Zea mays
In short: as §1

soybean = experiment: Test B pre/postemergence soybean; format: in vivo, Glycine max
In short: as §1

sugar beet = experiment: Test B pre/postemergence sugar beet; format: in vivo, Beta vulgaris
In short: as §1

velvetleaf = experiment: Test B pre/postemergence velvetleaf; format: in vivo, Abutilon theophrasti
In short: as §1

purple nutsedge = experiment: Test B pre/postemergence purple nutsedge; format: in vivo, Cyperus rotundus
In short: as §1

bamyardgrass = experiment: Test B flood test barnyardgrass; format: in vivo, Echinochloa crus-galli
In short: (§2)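 Read-out is a visual response score from 0 (no effect) to 10 (complete control), assigned by comparison with untreated controls. Treatment was applied at the 2-leaf stage, and plants stayed in the greenhouse for twelve to sixteen days before scoring.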

blackgrass = experiment: Test B pre/postemergence blackgrass; format: in vivo, Alopecurus myosuroides
In short: as §1

surinam grass = experiment: Test B pre/postemergence surinam grass; format: in vivo, Brachiaria decumbens
In short: as §1

wild oat = experiment: Test B pre/postemergence wild oat; format: in vivo, Avena fatua
In short: as §1

rice = experiment: Test B flood test rice; format: in vivo, Oryza sativa
In short: as §2

crabgrass = experiment: Test B pre/postemergence crabgrass; format: in vivo, Digitaria sanguinalis
In short: as §1

rape = experiment: Test B pre/postemergence rape; format: in vivo, Brassica napus
In short: as §1

smallflower flatsedge = experiment: Test B flood test smallflower flatsedge; format: in vivo, Cyperus difformis
In short: as §2

duck salad = experiment: Test B flood test duck salad; format: in vivo, Heteranthera limosa
In short: as §2

bedstraw = experiment: Test B pre/postemergence bedstraw; format: in vivo, Galium aparine
In short: as §1

[1] = Preemergence, Rate 62 g/ha, scale of 0 to 10 where 0 is no effect and 10 is complete control
[2] = Preemergence, Rate 250 g/ha, scale 0 to 10, 0 is no effect, 10 is complete control
[3] = Preemergence, Rate 500 g/ha, scale of 0 to 10 where 0 is no effect and 10 is complete control
[4] = Rate 62 g/ha, Postemergence, scale of 0 to 10 where 0 is no effect and 10 is complete control
[5] = Rate 125 g/ha, Postemergence, scale 0 to 10
[6] = Preemergence, Rate 125 g/ha, 0 is no effect, 10 is complete control
[7] = Rate 500 g/ha, Postemergence, scale 0 to 10
[8] = Rate 62 g/ha, headed Pre-emergence (flood test species), scale 0 to 10 (0 no effect, 10 complete control)
[9] = Rate 125 g/ha, Pre-emergence, flood test species, scale 0 to 10 where 0 is no effect and 10 is complete control
[10] = Rate 250 g/ha, Pre-emergence, flood-test species, scale 0 to 10, 0 is no effect, 10 is complete control
[11] = Rate 500 g/ha, headed Pre-emergence (flood test species), scale 0 to 10 (0 no effect, 10 complete control)

Cc1ccccc1-n1c(=O)on(C(=O)N(c2ccc(S(C)(=O)=O)cc2)C(C)C)c1=O [Compound 203]
0: Wheat plant response rating (wheat; [1]) | Wheat plant response rating (wheat; [2]) | Plant response rating, Wheat (wheat; [3]) | Wheat plant response rating (wheat; [4]) | Wheat plant response rating (wheat; [5]) | Plant response rating (0 to 10; 0 is no effect, 10 is complete control), Wheat (wheat; Rate 250 g/ha, Postemergence) | Cocklebur plant response rating (cocklebur; [1]) | Cocklebur plant response rating (0 to 10 scale) (cocklebur; [6]) | Cocklebur plant response rating (cocklebur; [2]) | Plant response rating, Cocklebur (cocklebur; [3]) | Cocklebur plant response rating (cocklebur; [4]) | Cocklebur plant response rating (cocklebur; [5]) | Plant response rating (0 to 10; 0 is no effect, 10 is complete control), Cocklebur (cocklebur; Rate 250 g/ha, Postemergence) | Cocklebur plant response rating (cocklebur; [7]) | Corn plant response rating (corn; [1]) | Corn plant response rating (0 to 10 scale) (corn; [6]) | Corn plant response rating (corn; [2]) | Plant response rating, Corn (corn; [3]) | Corn plant response rating (corn; [4]) | Corn plant response rating (corn; [5]) | Plant response rating (0 to 10; 0 is no effect, 10 is complete control), Corn (corn; Rate 250 g/ha, Postemergence) | Corn plant response rating (corn; [7]) | Soybean plant response rating (soybean; [1]) | Soybean plant response rating (0 to 10 scale) (soybean; [6]) | Soybean plant response rating (soybean; [2]) | Plant response rating, Soybean (soybean; [3]) | Soybean plant response rating (soybean; [4]) | Soybean plant response rating (soybean; [5]) | Plant response rating (0 to 10; 0 is no effect, 10 is complete control), Soybean (soybean; Rate 250 g/ha, Postemergence) | Soybean plant response rating (soybean; [7]) | Sugarbeets plant response rating (sugar beet; [1]) | Sugarbeets plant response rating (0 to 10 scale) (sugar beet; [6]) | Sugarbeets plant response rating (sugar beet; [2]) | Plant response rating, Sugarbeets (sugar beet; [3]) | Sugarbeets plant response rating (sugar beet; [4]) | Sugarbeets plant response rating (sugar beet; [5]) | Plant response rating (0 to 10; 0 is no effect, 10 is complete control), Sugarbeets (sugar beet; Rate 250 g/ha, Postemergence) | Sugarbeets plant response rating (sugar beet; [7]) | Velvetleaf plant response rating (velvetleaf; [1]) | Velvetleaf plant response rating (velvetleaf; [2]) | Plant response rating, Velvetleaf (velvetleaf; [3]) | Velvetleaf plant response rating (velvetleaf; [4]) | Velvetleaf plant response rating (velvetleaf; [5]) | Plant response rating (0 to 10; 0 is no effect, 10 is complete control), Velvetleaf (velvetleaf; Rate 250 g/ha, Postemergence) | Nutsedge plant response rating (purple nutsedge; [1]) | Nutsedge plant response rating (0 to 10 scale) (purple nutsedge; [6]) | Nutsedge plant response rating (purple nutsedge; [2]) | Plant response rating, Nutsedge (purple nutsedge; [3]) | Nutsedge plant response rating (purple nutsedge; [4]) | Nutsedge plant response rating (purple nutsedge; [5]) | Plant response rating (0 to 10; 0 is no effect, 10 is complete control), Nutsedge (purple nutsedge; Rate 250 g/ha, Postemergence) | Nutsedge plant response rating (purple nutsedge; [7]) | Barnyardgrass plant response rating (bamyardgrass; [8]) | Barnyardgrass plant response rating (bamyardgrass; [9]) | Barnyardgrass plant response rating (bamyardgrass; [10]) | Plant response rating, Barnyardgrass (bamyardgrass; [11]) | Blackgrass plant response rating (blackgrass; [1]) | Blackgrass plant response rating (0 to 10 scale) (blackgrass; [6]) | Blackgrass plant response rating (blackgrass; [2]) | Plant response rating, Blackgrass (blackgrass; [3]) | Blackgrass plant response rating (blackgrass; [4]) | Blackgrass plant response rating (blackgrass; [5]) | Plant response rating (0 to 10; 0 is no effect, 10 is complete control), Blackgrass (blackgrass; Rate 250 g/ha, Postemergence) | Blackgrass plant response rating (blackgrass; [7]) | B. signalgrass plant response rating (surinam grass; [1]) | B. signalgrass plant response rating (0 to 10 scale) (surinam grass; [6]) | B. signalgrass plant response rating (surinam grass; [2]) | Plant response rating, B. signalgrass (surinam grass; [3]) | B. signalgrass plant response rating (surinam grass; [4]) | B. signalgrass plant response rating (surinam grass; Rate 125 g/ha, Postemergence, scale 0 (no effect) to 10 (complete control)) | Plant response rating, B. signalgrass (surinam grass; Rate 250 g/ha, Postemergence, scale 0 to 10, 0 is no effect, 10 is complete control) | B. signalgrass plant response rating (surinam grass; Rate 500 g/ha, Postemergence, scale 0 to 10, 0 no effect, 10 complete control) | Wild oats plant response rating (wild oat; [1]) | Wild oats plant response rating (wild oat; [2]) | Plant response rating, Wild oats (wild oat; [3]) | Wild oats plant response rating (wild oat; [4]) | Wild oats plant response rating (wild oat; [5]) | Plant response rating (0 to 10; 0 is no effect, 10 is complete control), Wild oats (wild oat; Rate 250 g/ha, Postemergence) | Rice plant response rating (rice; [8]) | Rice plant response rating (rice; [9]) | Rice plant response rating (rice; [10]) | Plant response rating, Rice (rice; [11]) | Crabgrass plant response rating (crabgrass; [1]) | Crabgrass plant response rating (0 to 10 scale) (crabgrass; [6]) | Crabgrass plant response rating (crabgrass; [2]) | Plant response rating, Crabgrass (crabgrass; [3]) | Crabgrass plant response rating (crabgrass; [4]) | Crabgrass plant response rating (crabgrass; [5]) | Plant response rating (0 to 10; 0 is no effect, 10 is complete control), Crabgrass (crabgrass; Rate 250 g/ha, Postemergence) | Crabgrass plant response rating (crabgrass; [7]) | Rape plant response rating (rape; [1]) | Rape plant response rating (0 to 10 scale) (rape; [6]) | Rape plant response rating (rape; [2]) | Plant response rating, Rape (rape; [3]) | Rape plant response rating (rape; [4]) | Rape plant response rating (rape; [5]) | Plant response rating (0 to 10; 0 is no effect, 10 is complete control), Rape (rape; Rate 250 g/ha, Postemergence) | Rape plant response rating (rape; [7]) | S. Flatsedge plant response rating (smallflower flatsedge; [8]) | S. Flatsedge plant response rating (smallflower flatsedge; [9]) | S. Flatsedge plant response rating (smallflower flatsedge; [10]) | S. Flatsedge plant response rating (smallflower flatsedge; Rate 500 g/ha, Pre-emergence, flood test species, scale 0 to 10 (0 no effect, 10 complete control)) | Ducksalad plant response rating (duck salad; [8]) | Ducksalad plant response rating (duck salad; [9]) | Ducksalad plant response rating (duck salad; [10]) | Plant response rating, Ducksalad (duck salad; [11]) | Bedstraw plant response rating (bedstraw; [1]) | Bedstraw plant response rating (0 to 10 scale) (bedstraw; [6]) | Bedstraw plant response rating (bedstraw; [2]) | Plant response rating, Bedstraw (bedstraw; [3]) | Bedstraw plant response rating (bedstraw; [4]) | Bedstraw plant response rating (bedstraw; [5]) | Plant response rating (0 to 10; 0 is no effect, 10 is complete control), Bedstraw (bedstraw; Rate 250 g/ha, Postemergence) | Bedstraw plant response rating (bedstraw; [7])
